Source: patent publication EP3505218B1, “A GENTLE DETERGENT COMPOSITION FOR GREASY AND ACNEIC SKINS” (Unifarco S.p.A., priority 2017, dated 2019)

Tests used:
Propionibacterium acnes = details: cited from earlier work; for antibacterial / antimicrobial activity against Propionibacterium Acnes: raw material description, PCA ethyl cocoyl arginate at a pH lower than 7
[1] = Solubility of the raw material; assay type: physicochemical; details: needs to be pre-dissolved at 80°C in propylene glycol

| Compound | effectiveness as antibacterial against Propionibacterium acnes (Propionibacterium acnes; compared with other surfactants, US2008/0070986) | antibacterial / antimicrobial activity against Propionibacterium Acnes (Propionibacterium acnes) | solubility [1] |
| --- | --- | --- | --- |
| Laureth-7 citrate | 2 magnitude orders less effective | known antibacterial properties | – |
| CCCCCCCCCCCC(=O)N[C@@H](CCCNC(=N)N)C(=O)O [Lauroyl arginine] | – | – | poorly soluble |
| PCA ethyl cocoyl arginate | – | antimicrobial activity | – |
